Blank lines part the entries; values can stand above or below the molecule they belong to. Activity calls are given as the source filed them.
Experiments:
cells = type: functional, cell-based
[1] = biological target: Mitogen-activated protein kinase kinase kinase 20 (Homo sapiens, UniProt Q9NYL2); type: functional
[2] = biological target: Mitogen-activated protein kinase 13 (Homo sapiens, UniProt O15264); type: functional
[3] = biological target: Mitogen-activated protein kinase 9 (Homo sapiens, UniProt P45984); type: functional;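 further: value from a kinome panel profiling assay, MAPK9 panel entry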
Sequence of Mitogen-activated protein kinase 9 (P45984 whole entry): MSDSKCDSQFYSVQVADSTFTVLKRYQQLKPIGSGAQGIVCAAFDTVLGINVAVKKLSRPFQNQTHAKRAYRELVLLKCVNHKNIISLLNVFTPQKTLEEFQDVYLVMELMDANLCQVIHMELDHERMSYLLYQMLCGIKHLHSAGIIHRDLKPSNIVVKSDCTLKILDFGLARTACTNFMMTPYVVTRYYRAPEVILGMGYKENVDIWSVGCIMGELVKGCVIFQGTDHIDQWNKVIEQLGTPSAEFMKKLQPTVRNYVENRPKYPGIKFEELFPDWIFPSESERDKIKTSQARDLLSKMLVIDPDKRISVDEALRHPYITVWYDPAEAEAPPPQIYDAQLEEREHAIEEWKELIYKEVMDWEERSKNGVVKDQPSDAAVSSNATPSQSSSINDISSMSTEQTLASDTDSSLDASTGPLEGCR

[4] = biological target: Interleukin-1 receptor-associated kinase 1 (Homo sapiens, UniProt P51617); type: functional;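 further: IRAK1 tested as one member of a kinome panel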
Sequence of Interleukin-1 receptor-associated kinase 1 (P51617 whole entry): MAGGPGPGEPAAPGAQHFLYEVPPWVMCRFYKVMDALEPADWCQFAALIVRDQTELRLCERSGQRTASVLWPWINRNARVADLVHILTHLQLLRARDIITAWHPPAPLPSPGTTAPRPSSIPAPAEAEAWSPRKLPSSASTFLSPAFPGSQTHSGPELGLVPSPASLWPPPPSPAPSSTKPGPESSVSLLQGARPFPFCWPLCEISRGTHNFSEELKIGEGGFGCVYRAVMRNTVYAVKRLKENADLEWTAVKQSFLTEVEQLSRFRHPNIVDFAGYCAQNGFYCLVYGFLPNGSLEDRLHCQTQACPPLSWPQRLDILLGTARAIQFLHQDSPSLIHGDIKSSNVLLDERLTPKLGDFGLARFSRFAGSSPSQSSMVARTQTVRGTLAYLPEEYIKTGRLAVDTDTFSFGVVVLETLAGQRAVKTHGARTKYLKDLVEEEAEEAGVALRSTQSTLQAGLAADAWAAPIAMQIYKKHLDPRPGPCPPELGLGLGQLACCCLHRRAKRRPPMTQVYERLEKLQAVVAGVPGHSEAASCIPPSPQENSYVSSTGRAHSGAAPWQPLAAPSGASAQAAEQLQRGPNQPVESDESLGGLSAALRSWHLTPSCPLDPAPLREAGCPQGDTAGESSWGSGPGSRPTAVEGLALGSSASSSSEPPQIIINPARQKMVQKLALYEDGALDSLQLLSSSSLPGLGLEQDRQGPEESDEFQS

Misshapen-like kinase 1 = Misshapen-like kinase 1 (Homo sapiens, UniProt Q8N4C8); type: functional;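 further: kinome panel screen with MINK as the panel member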
[5] = biological target: RAC-gamma serine/threonine-protein kinase (Homo sapiens, UniProt Q9Y243); type: functional
[6] = biological target: RAC-alpha serine/threonine-protein kinase (Homo sapiens, UniProt P31749); type: functional;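 further: AKT1 affinity measured as one member of a kinome-wide kinase profiling panel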
[7] = biological target: Calcium/calmodulin-dependent protein kinase type 1 (Homo sapiens, UniProt Q14012); type: functional
Sequence of Calcium/calmodulin-dependent protein kinase type 1 (Q14012 whole entry): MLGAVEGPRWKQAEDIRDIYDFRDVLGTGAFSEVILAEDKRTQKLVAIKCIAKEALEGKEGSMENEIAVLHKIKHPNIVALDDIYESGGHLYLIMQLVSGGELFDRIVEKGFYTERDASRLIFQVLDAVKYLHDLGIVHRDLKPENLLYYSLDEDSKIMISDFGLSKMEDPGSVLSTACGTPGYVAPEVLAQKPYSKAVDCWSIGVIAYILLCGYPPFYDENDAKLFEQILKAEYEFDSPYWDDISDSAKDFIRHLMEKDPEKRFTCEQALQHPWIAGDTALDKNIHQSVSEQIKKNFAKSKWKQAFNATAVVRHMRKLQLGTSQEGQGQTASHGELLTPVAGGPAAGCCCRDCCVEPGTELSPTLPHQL

[8] = biological target: 3-phosphoinositide-dependent protein kinase 1 (Homo sapiens, UniProt O15530); type: functional;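 further: value comes from the Navigating the Kinome panel, PDPK1 member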
Activin receptor type-1 = Activin receptor type-1 (Homo sapiens, UniProt Q04771); test: Navigating the Kinome. Panel member name: ACVR1; type: functional
[9] = biological target: Macrophage colony-stimulating factor 1 receptor (Homo sapiens, UniProt P07333); type: functional;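 further: value comes from the Navigating the Kinome screening panel, CSF1R member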
[10] = biological target: Serine/threonine-protein kinase DCLK1 (Homo sapiens, UniProt O15075); type: functional;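 further: affinity for DCLK1 (listed as DCAMKL1) measured as one member of a kinome-wide kinase profiling panel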
[11] = biological target: Serine/threonine-protein kinase Nek4 (Homo sapiens, UniProt P51957); type: functional
[12] = biological target: Tyrosine-protein kinase Fyn (Homo sapiens, UniProt P06241); type: functional
[13] = biological target: Cyclin-dependent kinase 1 (Homo sapiens, UniProt P06493); type: functional;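 further: Kinome-wide panel profiling, with the target listed as panel member CDC2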
[14] = biological target: Proto-oncogene tyrosine-protein kinase receptor Ret (Homo sapiens, UniProt P07949); type: functional;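 further: measured within a kinome-wide profiling panel, RET as the panel member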
[15] = biological target: Mitogen-activated protein kinase kinase kinase 10 (Homo sapiens, UniProt Q02779); test: Navigating the Kinome. Panel member name: MAP3K10; type: functional
[16] = biological target: Mitogen-activated protein kinase kinase kinase kinase 2 (Homo sapiens, UniProt Q12851); type: functional;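 further: measured as one member of a kinome-wide kinase panel, with MAP4K2 as the panel entry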
[17] = biological target: Dual specificity protein kinase CLK2 (Homo sapiens, UniProt P49760); type: functional
Aurora kinase B = Aurora kinase B (Homo sapiens, UniProt Q96GD4); type: functional
[18] = biological target: MAP/microtubule affinity-regulating kinase 3 (Homo sapiens, UniProt P27448); type: functional;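 further: MARK3 affinity measured as one member of a kinome panel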
[19] = biological target: Leucine-rich repeat serine/threonine-protein kinase 2 (Homo sapiens, UniProt Q5S007); type: functional;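 further: value from a broad kinome-wide panel profiling study in which LRRK2 was one of the kinases tested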
Sequence of Leucine-rich repeat serine/threonine-protein kinase 2 (Q5S007 whole entry): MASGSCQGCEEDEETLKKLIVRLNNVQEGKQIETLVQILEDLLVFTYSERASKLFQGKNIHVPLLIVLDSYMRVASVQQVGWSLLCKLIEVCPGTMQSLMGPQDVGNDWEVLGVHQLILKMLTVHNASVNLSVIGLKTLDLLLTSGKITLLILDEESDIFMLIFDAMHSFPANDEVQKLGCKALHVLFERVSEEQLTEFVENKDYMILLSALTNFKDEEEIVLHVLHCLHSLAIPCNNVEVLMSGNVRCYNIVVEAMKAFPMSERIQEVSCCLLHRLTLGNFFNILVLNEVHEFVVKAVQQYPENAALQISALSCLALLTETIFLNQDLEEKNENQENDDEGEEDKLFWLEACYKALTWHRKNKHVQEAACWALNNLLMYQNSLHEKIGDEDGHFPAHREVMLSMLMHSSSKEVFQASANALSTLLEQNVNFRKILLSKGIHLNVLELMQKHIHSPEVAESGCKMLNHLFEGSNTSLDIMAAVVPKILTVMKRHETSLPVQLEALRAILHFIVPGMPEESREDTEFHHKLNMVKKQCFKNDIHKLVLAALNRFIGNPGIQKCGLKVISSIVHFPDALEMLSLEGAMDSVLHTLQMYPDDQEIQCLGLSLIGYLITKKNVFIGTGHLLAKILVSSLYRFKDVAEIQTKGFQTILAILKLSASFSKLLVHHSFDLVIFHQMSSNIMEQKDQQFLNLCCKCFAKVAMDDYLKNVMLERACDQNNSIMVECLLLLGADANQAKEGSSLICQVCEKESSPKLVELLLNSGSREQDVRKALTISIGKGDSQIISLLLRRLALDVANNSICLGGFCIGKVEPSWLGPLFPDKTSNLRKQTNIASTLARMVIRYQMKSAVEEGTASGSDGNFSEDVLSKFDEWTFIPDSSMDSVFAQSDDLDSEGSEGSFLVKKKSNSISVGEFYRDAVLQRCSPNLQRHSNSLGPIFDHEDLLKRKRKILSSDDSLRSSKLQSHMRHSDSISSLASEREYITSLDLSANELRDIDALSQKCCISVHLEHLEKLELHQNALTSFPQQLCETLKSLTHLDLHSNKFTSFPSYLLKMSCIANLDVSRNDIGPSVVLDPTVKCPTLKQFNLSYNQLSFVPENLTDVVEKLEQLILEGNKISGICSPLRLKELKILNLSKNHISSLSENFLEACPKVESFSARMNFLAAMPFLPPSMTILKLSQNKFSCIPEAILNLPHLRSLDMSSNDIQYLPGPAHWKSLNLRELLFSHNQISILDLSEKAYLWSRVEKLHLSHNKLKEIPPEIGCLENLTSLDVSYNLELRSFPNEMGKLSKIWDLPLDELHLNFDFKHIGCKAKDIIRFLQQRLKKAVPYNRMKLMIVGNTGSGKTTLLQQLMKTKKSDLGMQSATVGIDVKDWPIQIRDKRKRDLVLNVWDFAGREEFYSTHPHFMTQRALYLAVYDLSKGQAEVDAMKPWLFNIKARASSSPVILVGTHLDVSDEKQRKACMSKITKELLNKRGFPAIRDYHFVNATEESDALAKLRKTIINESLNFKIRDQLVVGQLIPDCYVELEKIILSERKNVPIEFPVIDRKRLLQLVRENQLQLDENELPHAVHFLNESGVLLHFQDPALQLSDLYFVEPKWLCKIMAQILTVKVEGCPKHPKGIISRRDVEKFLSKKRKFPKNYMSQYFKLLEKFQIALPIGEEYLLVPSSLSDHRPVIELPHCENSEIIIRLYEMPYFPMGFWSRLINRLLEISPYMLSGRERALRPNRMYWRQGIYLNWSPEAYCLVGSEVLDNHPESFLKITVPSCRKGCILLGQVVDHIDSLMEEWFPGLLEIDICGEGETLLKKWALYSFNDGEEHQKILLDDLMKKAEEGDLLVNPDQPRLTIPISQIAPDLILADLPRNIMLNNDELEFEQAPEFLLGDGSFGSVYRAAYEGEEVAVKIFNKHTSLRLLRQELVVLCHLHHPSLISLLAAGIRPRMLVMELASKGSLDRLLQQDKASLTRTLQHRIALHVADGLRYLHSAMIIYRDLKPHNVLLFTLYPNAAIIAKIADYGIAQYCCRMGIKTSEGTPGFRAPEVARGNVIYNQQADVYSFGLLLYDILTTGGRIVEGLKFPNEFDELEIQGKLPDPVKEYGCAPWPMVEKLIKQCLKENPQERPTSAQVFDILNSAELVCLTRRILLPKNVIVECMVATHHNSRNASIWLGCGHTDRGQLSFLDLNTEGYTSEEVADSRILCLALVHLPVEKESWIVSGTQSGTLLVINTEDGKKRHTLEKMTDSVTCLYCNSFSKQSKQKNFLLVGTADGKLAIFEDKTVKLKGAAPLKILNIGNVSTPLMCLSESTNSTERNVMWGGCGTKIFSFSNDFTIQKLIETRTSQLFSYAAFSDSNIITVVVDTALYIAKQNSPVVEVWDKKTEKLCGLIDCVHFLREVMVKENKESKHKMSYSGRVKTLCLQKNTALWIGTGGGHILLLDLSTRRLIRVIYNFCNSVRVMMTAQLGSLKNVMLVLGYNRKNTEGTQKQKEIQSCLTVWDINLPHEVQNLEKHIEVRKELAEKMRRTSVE

[20] = biological target: Mitogen-activated protein kinase 10 (Homo sapiens, UniProt P53779); test: Navigating the Kinome. Panel member name: MAPK10; type: functional
[21] = biological target: Megakaryocyte-associated tyrosine-protein kinase (Homo sapiens, UniProt P42679); type: functional;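 further: affinity measured as one member of a kinase panel (Navigating the Kinome) against MATK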
[22] = biological target: Glycogen synthase kinase-3 beta (Homo sapiens, UniProt P49841); type: functional;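 further: value comes from a broad kinome profiling panel, with GSK3B as the panel member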
Sequence of Glycogen synthase kinase-3 beta (P49841 whole entry): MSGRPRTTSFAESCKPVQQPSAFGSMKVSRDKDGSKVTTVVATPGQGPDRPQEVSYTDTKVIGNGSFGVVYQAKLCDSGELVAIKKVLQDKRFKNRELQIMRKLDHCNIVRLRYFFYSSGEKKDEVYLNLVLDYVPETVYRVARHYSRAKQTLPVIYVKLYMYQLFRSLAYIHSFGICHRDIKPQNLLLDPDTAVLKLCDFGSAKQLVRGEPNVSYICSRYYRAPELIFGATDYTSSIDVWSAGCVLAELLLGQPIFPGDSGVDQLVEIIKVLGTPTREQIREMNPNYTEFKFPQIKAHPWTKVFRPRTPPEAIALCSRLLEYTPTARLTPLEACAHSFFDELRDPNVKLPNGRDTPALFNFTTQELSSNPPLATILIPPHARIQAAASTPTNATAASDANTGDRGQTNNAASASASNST

[23] = biological target: Vascular endothelial growth factor receptor 1 (Homo sapiens, UniProt P17948); type: functional;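 further: measured within a kinome-wide profiling panel, FLT1 as the panel member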
[24] = biological target: Mitochondrial peptide methionine sulfoxide reductase (Bos taurus, UniProt P54149); test: Absorbance-based biochemical high throughput dose response assay for activators of Methionine sulfoxide reductase A (MsrA).; type: functional
Sequence of Mitochondrial peptide methionine sulfoxide reductase (P54149 whole entry, the tested form may be a part): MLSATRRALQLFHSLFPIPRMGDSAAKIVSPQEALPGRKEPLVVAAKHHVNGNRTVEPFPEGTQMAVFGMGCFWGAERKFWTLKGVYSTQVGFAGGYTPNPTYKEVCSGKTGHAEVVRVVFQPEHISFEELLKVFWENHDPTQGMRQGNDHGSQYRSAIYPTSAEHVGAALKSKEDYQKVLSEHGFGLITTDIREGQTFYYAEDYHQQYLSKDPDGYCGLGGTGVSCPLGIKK

[25] = inhibition of ARNT PAS-B/TACC3 complex formation – biochemical, AlphaScreen, cherry-picked samples, confirmation (AID 651703); type: functional, Homo sapiens;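 further: His-tagged ARNT PAS-B domain paired with GST-TACC3 E629A dimer coactivator fragment; potency of inhibitors that break up the complex and lower AlphaScreen signal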
[26] = biological target: T1, Calpain-2 catalytic subunit (Sus scrofa, UniProt P43367); test: m-calpain protease blockers, concentration series – biochemical, fluorogenic peptide substrate, dose response (AID 1420); type: functional
T1 sequence (P43367 whole entry): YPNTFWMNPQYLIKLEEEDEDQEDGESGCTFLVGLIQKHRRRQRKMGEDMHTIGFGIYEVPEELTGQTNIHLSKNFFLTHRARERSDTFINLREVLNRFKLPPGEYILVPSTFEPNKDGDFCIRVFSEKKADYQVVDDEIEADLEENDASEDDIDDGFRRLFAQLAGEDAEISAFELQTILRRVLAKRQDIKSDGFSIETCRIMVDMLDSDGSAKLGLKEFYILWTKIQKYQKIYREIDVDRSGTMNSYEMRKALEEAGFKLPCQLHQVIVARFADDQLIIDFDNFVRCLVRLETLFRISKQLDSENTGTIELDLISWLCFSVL

[27] = decrease of insulin promoter-GFP reporter – imaging, high-content screening, mouse beta cells (AID 1628); type: functional; details: MIN6

Sequence of Mitogen-activated protein kinase 13 (O15264 whole entry): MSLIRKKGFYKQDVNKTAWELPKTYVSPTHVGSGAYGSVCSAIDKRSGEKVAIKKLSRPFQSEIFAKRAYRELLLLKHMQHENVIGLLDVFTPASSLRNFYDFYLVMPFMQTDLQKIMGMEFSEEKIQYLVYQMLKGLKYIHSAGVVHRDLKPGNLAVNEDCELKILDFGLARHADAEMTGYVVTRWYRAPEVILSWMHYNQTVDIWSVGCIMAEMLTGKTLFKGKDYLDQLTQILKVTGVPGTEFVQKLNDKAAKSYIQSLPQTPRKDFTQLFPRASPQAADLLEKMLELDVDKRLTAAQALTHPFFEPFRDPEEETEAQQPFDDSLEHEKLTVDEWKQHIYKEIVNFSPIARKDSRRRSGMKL

Structure (SMILES): CCOC(=O)c1c(NS(=O)(=O)c2ccccc2)n(CCCOC)c2nc3ccccc3nc12
- EC50 (cells): > 350000 nM (not active)

- Ki [1]: > 7940 nM (inactive)
- Ki [2]: 1260 nM (active)
- Ki [3]: 3160 nM (active)
- Ki [4]: 1260 nM (active)
- Ki (Misshapen-like kinase 1): 3.98 nM (active)
- Ki [5]: > 6310 nM (inactive)
- Ki [6]: > 5010 nM (inactive)
- Ki [7]: > 1580 nM (inactive)
- Ki [8]: 50.1 nM (active)
- Ki (Activin receptor type-1): > 3980 nM (inactive)
- Ki [9]: 200 nM (active)
- Ki [10]: > 10000 nM (inactive)
- Ki [11]: 794 nM (active)
- Ki [12]: > 794 nM (inactive)
- Ki [13]: 1000 nM (active)
- Ki [14]: > 2510 nM (inactive)
- Ki [15]: 79.4 nM (active)
- Ki [16]: 7.94 nM (active)
- Ki [17]: 794 nM (active)
- Ki (Aurora kinase B): 316 nM (active)
- Ki [18]: 398 nM (active)
- Ki [19]: 31.6 nM (active)
- Ki [20]: > 3160 nM (inactive)
- Ki [21]: 1580 nM (active)
- Ki [22]: 63.1 nM (active)
- Ki [23]: > 1580 nM (inactive)
Structure (SMILES): OC1CCC(Nc2cc(Cl)nc(-c3c[nH]c4ncccc34)n2)CC1 (stereo unspecified)

- EC50 [24]: 22100 nM (inactive)
Structure (SMILES): O=C(COC(=O)c1ccc([N+](=O)[O-])s1)NCCc1ccccc1
- AC50 [25]: 83700 nM (active)

Structure (SMILES): COCC/N=c1\scc(-c2cccs2)n1/N=C/c1ccc(O)c(O)c1O
- IC50 [26]: 38900 nM (not active)
- IC50 [27]: > 16000 nM (inactive)

— ChEMBL document CHEMBL1201862, “PubChem BioAssay data set” (2004)
